# Results: patent EP0081756A1, “New compounds with antiinflammatory and antitussive activity, process for their preparation and relative pharmaceutical compositions” (MEDEA RESEARCH S.r.l., priority 1981, dated 1983)
# Marks after values point to notes of the source that are not given here.
# Assays:
# [1] = system: whrithing by phenylquinone; assay: Analgesic activity, writhing by phenylquinone (method of Siegmund); type: in vivo; conditions: mice
# carrageenin edema = assay: Antiinflammatory activity, carrageenin edema test (method of Winter); type: in vivo; conditions: rat; for % INHIBITION / EDEMA VOLUME Final value: 50 mg/kg oral 30 minutes before carrageenin, measured 3 hours after induction; for EDEMA VOLUME Basal value: 50 mg/kg oral
# Procedure: The antiinflammatory activity of MR 549 has been assessed by the carrageenin edema test in the rat according to the method of Winter et al. (Proc. Soc. Exp. Biol. Med., 1962, III, 544).
# The product under exam and indomethaoin at equiponderant doses have been administered by the oral route 30 minutes before of the subplantar carragee ning injection; pletismographic measures of the edemas have been performed 3 hours after they had been induced.
# [2] = Acute toxicity after single administration, rat; conditions: in vivo
# Text: (§1) The toxicity after single administrations of MR 549 has been studied in mice and rats by the oral and intraperitoneal routes.
# (§2) The LD50 values have been calculated according to the method of Litchfield and Wilooxon (J. Pharm. Exp. Therap., 1949, 96, 99).
# gastric mucosa [3] = conditions: rat, in vivo, po
# Procedure: (§3) Male rats of S-D strain, weighing 180-200 g and fasting for 48 hours with free access to water, have been used. The product under exam have been administered by intraperitoneal routes : twice (after 24 and 31 hours from the beginning of the fasting period) at the single dose of 100 mg/kg; or three times by oral route (9.24 and 31 hours after the beginning of the fasting period) at the single dose of 150 mg/kg.
# mouse = assay: Acute toxicity after single administration, mouse; type: in vivo; conditions: mice and rats, oral and intraperitoneal routes
# Text: as §1, §2
# [4] = Acute toxicity after single administration, mouse; type: in vivo; conditions: in vivo, mouse, single administration
# Text: as §1, §2
# motor activity = assay: Spontaneous motor activity; type: in vivo; conditions: Swiss mouse, 50 mg/kg i.p.
# Procedure: The effect of MR 549 on the motor activity has been studied in the Swiss mouse, by placing two groups of animals in a box connected with a recorder detec ting spontaneous motility. On the basis of movemen- ts/minute recorded, MR 549 at the dose of 50 mg/kg i.p. has been administered to one group and the ac tivity has been recorded during the 2 hours following treatment; the second group, treated with the solvent alone, has been used as control group.
# gastric mucosa [5] = assay: Gastric tolerability (method of Pisanti and Volterra); conditions: fasting rats, 12 animals
# Procedure: as §3
# [6] = 50 mg/kg os, 30 minutes before phenylquinone injection
smiles,measurement,setting,value
"CC(=O)Oc1ccccc1C(=O)O [ACETYL-SALICYLIC ACID, acetylsalicylic acid, reference compound]",% INHIBITION IN COMPARISON WITH CONTROLS,[1]; 100 mg/kg os,79.6%
same,N° CONTORSIONS X̄ ± e.s.,[1]; 100 mg/kg os,3.9 ± 1.93
same,N° WHRITHING ANIMALS/TOTAL N&,[1]; 100 mg/kg os,12/20
"COc1ccc2c(c1)c(CC(=O)O)c(C)n2C(=O)c1ccc(Cl)cc1 [INDO-METHACINE, indomethacin, reference compound]",% INHIBITION,carrageenin edema,53.2%
same,EDEMA VOLUME Final value,carrageenin edema,29.6
same,EDEMA VOLUME Basal value,carrageenin edema,22.5
"Cc1cccnc1NC(=O)C1(c2ccccc2)CCCC1 [MR 549, 2-[(1-phenyl)cyclopentyl-carbonyl]-amino-3-methylpyridine]",% INHIBITION,carrageenin edema,38.1%
same,EDEMA VOLUME Final value,carrageenin edema,31.8
same,EDEMA VOLUME Basal value,carrageenin edema,22.6
same,LD50,[2]; ip,600 mg/kg
same,LD50,"[2]; po, os",1100 mg/kg
same,gastrolesive action (verbal summary),gastric mucosa [3],clearly lower than phenylbutazone
same,% INHIBITION IN COMPARISON WITH CONTROLS,[1]; [6],63.9%
same,N° CONTORSIONS X̄ ± e.s.,[1]; [6],6.9 ± 2.24
same,N° WHRITHING ANIMALS/TOTAL N&,[1]; [6],14/20
same,acute toxicity (verbal summary),mouse,very low acute toxicity
same,LD50,[4]; ip,300 mg/kg
same,LD50,"[4]; po, os",550 mg/kg
same,N° recorded movements/min.,motor activity; 15',42 movements/min.
same,N° recorded movements/min.,motor activity; 30',52 movements/min.
same,N° recorded movements/min.,motor activity; 60',39 movements/min.
same,N° recorded movements/min.,motor activity; 90',52 movements/min.
same,N° recorded movements/min.,motor activity; Time: 0,45 movements/min.
"CCCCC1C(=O)N(c2ccccc2)N(c2ccccc2)C1=O [Phenylbu-tazone, phenylbutazone]",% ANIMALS WITH ULCERS,gastric mucosa [5]; 100 mg X 2 i.p.,83.30%
same,N° ANIMALS WITH ULCERS,gastric mucosa [5]; 100 mg X 2 i.p.,10*
same,animals died during treatment,gastric mucosa [5]; 100 mg X 2 i.p.,* an animal died during treatment
same,% ANIMALS WITH ULCERS,gastric mucosa [5]; 150 mg X 3 os,91.67%
same,N° ANIMALS WITH ULCERS,gastric mucosa [5]; 150 mg X 3 os,11**
same,animals died during treatment,gastric mucosa [5]; 150 mg X 3 os,** two animals died during treatment.
